The assay addresses T1, F508delCFTR (Homo sapiens, UniProt P13569, DEL508-508).
T1 construct: expressed in transfected cells; host or cells: CFBE41o- (human lung derived epithelial cell line), doxycycline-inducible expression
In words: Cell Surface Expression-Horse Radish Peroxidase (CSE-HRP) assay. The class given is cell-based. Conditions: CFBE41o-F508delCFTR-HRP cells; for Maximum % activity (with co-corrector): with co-corrector (2 μM); for Maximum % activity (with co-corrector) / Maximum % activity (without co-corrector): normalized to on-plate positive control, highest concentration 20 μM. In outline:
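Surface F508delCFTR-HRP was read by luminol luminescence after 18–24 h compound exposure at 33 °C, without or with 2 μM co-corrector. Doses were eight 3-fold steps from 20 μM, in doxycycline-induced (0.5 μg/mL, 72 h) CFBE41o- cells. % activity was scaled to the on-plate 2 μM positive control minus DMSO; EC50 came from a variable-slope sigmoid fit.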

[1] abbreviates: test compound without co-corrector, 18-24 hours at 33° C., read-out: EC50 (without co-corrector).
[2] abbreviates: with co-corrector (2 μM of 3-[(2R,4R)-4-({[1-(2,2-difluoro-1,3-benzodioxol-5-yl)cyclopropyl]carbonyl}amino)-7-methoxy-3,4-dihydro-2H-chromen-2-yl]benzoic acid), read-out: EC50 (with co-corrector).

The term EC50 denotes the concentration that produces a half-maximal response.

Where two headings read alike, the source gives them in different places.

T1 sequence (P13569 with tags, fused parts or gaps DEL508-508): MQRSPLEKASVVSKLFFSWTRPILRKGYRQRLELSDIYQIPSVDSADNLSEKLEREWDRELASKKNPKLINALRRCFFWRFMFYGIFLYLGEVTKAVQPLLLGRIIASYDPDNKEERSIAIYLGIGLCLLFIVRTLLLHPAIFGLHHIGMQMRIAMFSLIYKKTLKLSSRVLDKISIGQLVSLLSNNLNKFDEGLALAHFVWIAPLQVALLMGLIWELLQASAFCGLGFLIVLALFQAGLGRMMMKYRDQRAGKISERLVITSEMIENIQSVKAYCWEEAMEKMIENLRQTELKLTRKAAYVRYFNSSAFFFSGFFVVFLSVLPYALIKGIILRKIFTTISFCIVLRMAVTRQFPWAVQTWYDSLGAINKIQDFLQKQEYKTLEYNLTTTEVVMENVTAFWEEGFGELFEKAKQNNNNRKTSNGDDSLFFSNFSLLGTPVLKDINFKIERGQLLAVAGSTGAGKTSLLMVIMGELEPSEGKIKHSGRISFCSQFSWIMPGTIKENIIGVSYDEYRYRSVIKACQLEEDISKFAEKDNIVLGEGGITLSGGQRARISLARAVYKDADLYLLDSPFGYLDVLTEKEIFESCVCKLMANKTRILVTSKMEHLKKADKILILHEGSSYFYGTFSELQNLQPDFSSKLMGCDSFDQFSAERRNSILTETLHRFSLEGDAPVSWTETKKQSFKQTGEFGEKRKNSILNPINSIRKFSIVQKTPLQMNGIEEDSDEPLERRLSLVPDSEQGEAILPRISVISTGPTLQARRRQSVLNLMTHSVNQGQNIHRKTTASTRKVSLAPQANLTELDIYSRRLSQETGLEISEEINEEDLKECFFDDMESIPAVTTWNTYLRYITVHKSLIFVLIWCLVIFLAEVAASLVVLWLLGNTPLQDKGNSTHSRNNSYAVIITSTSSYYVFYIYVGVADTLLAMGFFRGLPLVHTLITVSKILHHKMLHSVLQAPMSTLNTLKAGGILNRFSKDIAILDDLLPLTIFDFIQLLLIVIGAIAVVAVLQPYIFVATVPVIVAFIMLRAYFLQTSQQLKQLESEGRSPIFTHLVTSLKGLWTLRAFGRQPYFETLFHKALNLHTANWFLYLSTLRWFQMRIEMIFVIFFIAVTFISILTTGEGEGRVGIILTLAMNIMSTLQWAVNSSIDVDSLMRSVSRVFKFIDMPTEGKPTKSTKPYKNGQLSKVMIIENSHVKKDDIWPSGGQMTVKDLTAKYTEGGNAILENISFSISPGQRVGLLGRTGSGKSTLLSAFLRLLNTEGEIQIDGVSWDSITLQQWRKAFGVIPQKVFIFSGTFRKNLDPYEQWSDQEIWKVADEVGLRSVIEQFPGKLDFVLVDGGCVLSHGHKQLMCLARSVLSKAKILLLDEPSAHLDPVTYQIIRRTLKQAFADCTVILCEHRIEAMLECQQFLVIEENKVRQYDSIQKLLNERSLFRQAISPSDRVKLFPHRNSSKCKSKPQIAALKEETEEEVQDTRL

On to `COc1ncc(C(F)(F)F)cc1CO[C@H]1[C@H](C(C)(C)C)[C@@H](C(=O)O)N(C(=O)[C@@H]2CCCCO2)[C@H]1c1ccccc1-c1ccc2c(c1)OCO2` [Example 203, (2S,3R,4S,5S)-5-[2-(2H-1,3-benzodioxol-5-yl)phenyl]-3-tert-butyl-4-{[2-methoxy-5-(trifluoromethyl)pyridin-3-yl]methoxy}-1-[(2S)-oxane-2-carbonyl]pyrrolidine-2-carboxylic acid], for which the “Maximum % activity (with co-corrector)” value is recorded as “+++ (≥350)” and the “Maximum % activity (without co-corrector)” value is “+++ (≥200)”. Further, the EC50 under setting [1] lay within 1000 to 10000 nM. Further, under setting [2], the half-maximal effective concentration (EC50) is 1000 to 10000 nM.

In the case of `COc1ncc(C(F)(F)F)cc1CO[C@H]1[C@H](C(C)(C)C)[C@@H](C(=O)O)N(C(=O)[C@@H]2CCCCO2)[C@H]1c1ccccc1-c1ccccc1F` [Example 204, (2S,3R,4S,5S)-3-tert-butyl-5-(2′-fluoro[1,1′-biphenyl]-2-yl)-4-{[2-methoxy-5-(trifluoromethyl)pyridin-3-yl]methoxy}-1-[(2S)-oxane-2-carbonyl]pyrrolidine-2-carboxylic acid], the “Maximum % activity (with co-corrector)” value is given as “+++ (≥350)” and the “Maximum % activity (without co-corrector)” value is given as “+++ (≥200)”. For the same compound, under setting [1], the EC50 was 1000 to 10000 nM. The EC50 under setting [2] is < 1000 nM.

For the compound `COc1ccc(-c2ccccc2[C@H]2[C@@H](OCc3cc(C(F)(F)F)cnc3OC)[C@H](C(C)(C)C)[C@@H](C(=O)O)N2C(=O)[C@@H]2CCCCO2)cn1` [Example 205, (2S,3R,4S,5S)-3-tert-butyl-5-[2-(6-methoxypyridin-3-yl)phenyl]-4-{[2-methoxy-5-(trifluoromethyl)pyridin-3-yl]methoxy}-1-[(2S)-oxane-2-carbonyl]pyrrolidine-2-carboxylic acid], the “Maximum % activity (with co-corrector)” value is listed as “+++ (≥350)”; the “Maximum % activity (without co-corrector)” value is “++ (≥100 and <200)”. The EC50 under setting [1] lay in the range of 1000 to 10000 nM. The EC50 under setting [2] was 1000 to 10000 nM.

Turning to `COc1ncc(C(F)(F)F)cc1CO[C@H]1[C@H](C(C)(C)C)[C@@H](C(=O)O)N(C(=O)[C@@H]2CCCCO2)[C@H]1c1ccccc1-c1ccc(OC(F)(F)F)cc1` [Example 206, (2S,3R,4S,5S)-3-tert-butyl-4-{[2-methoxy-5-(trifluoromethyl)pyridin-3-yl]methoxy}-1-[(2S)-oxane-2-carbonyl]-5-[4′-(trifluoromethoxy) [1,1′-biphenyl]-2-yl]pyrrolidine-2-carboxylic acid], the “Maximum % activity (with co-corrector)” value is “+++ (≥350)” and the “Maximum % activity (without co-corrector)” value was “+++ (≥200)”. Besides, the EC50 under setting [1] lay within 1000 to 10000 nM. Moreover, under setting [2], the EC50 lay in the range of 1000 to 10000 nM.

`COc1ncc(C(F)(F)F)cc1CO[C@H]1[C@H](C(C)(C)C)[C@@H](C(=O)O)N(C(=O)[C@@H]2CCCCO2)[C@H]1c1ccccc1-c1ccc(C#N)cc1` [Example 207, (2S,3R,4S,5S)-3-tert-butyl-5-(4′-cyano[1,1′-biphenyl]-2-yl)-4-{[2-methoxy-5-(trifluoromethyl)pyridin-3-yl]methoxy}-1-[(2S)-oxane-2-carbonyl]pyrrolidine-2-carboxylic acid]: the “Maximum % activity (with co-corrector)” value was “+++ (≥350)”; the “Maximum % activity (without co-corrector)” value was “++ (≥100 and <200)”. In addition, under setting [1], the EC50 fell in the range of 1000 to 10000 nM. Also, the concentration giving a half-maximal response (EC50) under setting [2] is 1000 to 10000 nM.

With `COc1ncc(C(F)(F)F)cc1CO[C@H]1[C@H](C(C)(C)C)[C@@H](C(=O)O)N(C(=O)[C@@H]2CCCCO2)[C@H]1c1ccccc1-c1ccc(C(F)(F)F)nc1` [Example 208, (2S,3R,4S,5S)-3-tert-butyl-4-{[2-methoxy-5-(trifluoromethyl)pyridin-3-yl]methoxy}-1-[(2S)-oxane-2-carbonyl]-5-{2-[6-(trifluoromethyl)pyridin-3-yl]phenyl}pyrrolidine-2-carboxylic acid], the “Maximum % activity (with co-corrector)” value is “+++ (≥350)” and the “Maximum % activity (without co-corrector)” value was “+++ (≥200)”. Moreover, the EC50 under setting [1] is 1000 to 10000 nM. In addition, under setting [2], the EC50 was in the range of 1000 to 10000 nM.

Turning to `CCOc1cncc(-c2ccccc2[C@H]2[C@@H](OCc3cc(C(F)(F)F)cnc3OC)[C@H](C(C)(C)C)[C@@H](C(=O)O)N2C(=O)[C@@H]2CCCCO2)c1` [Example 209, (2S,3R,4S,5S)-3-tert-butyl-5-[2-(5-ethoxypyridin-3-yl)phenyl]-4-{[2-methoxy-5-(trifluoromethyl)pyridin-3-yl]methoxy}-1-[(2S)-oxane-2-carbonyl]pyrrolidine-2-carboxylic acid], the “Maximum % activity (with co-corrector)” value was “+++ (≥350)”; the “Maximum % activity (without co-corrector)” value was “++ (≥100 and <200)”. In addition, under setting [1], the EC50 fell in the range of 1000 to 10000 nM. Moreover, the EC50 under setting [2] was in the range of 1000 to 10000 nM.

As to `COc1ccc(C(C)(C)C)cc1CO[C@H]1[C@H](C(C)(C)C)[C@@H](C(=O)O)N(C(=O)[C@@H]2CCCCO2)[C@H]1c1cccc2ccccc12` [Example 211, (2S,3R,4S,5S)-3-tert-butyl-4-[(5-tert-butyl-2-methoxyphenyl)methoxy]-5-(naphthalen-1-yl)-1-[(2S)-oxane-2-carbonyl]pyrrolidine-2-carboxylic acid], the “Maximum % activity (with co-corrector)” value is reported as “+++ (≥350)” and the “Maximum % activity (without co-corrector)” value is recorded as “+++ (≥200)”. The concentration giving a half-maximal response (EC50) under setting [1] fell in the range of 1000 to 10000 nM. In addition, the concentration for a half-maximal effect (EC50) under setting [2] was < 1000 nM.

As to `COc1ncc(C(F)(F)F)cc1CO[C@H]1[C@H](C(C)(C)C)[C@@H](C(=O)O)N(C(=O)[C@@H]2CCCCO2)[C@H]1c1cccc2ccoc12` [Example 212, (2S,3R,4S,5S)-5-(1-benzofuran-7-yl)-3-tert-butyl-4-{[2-methoxy-5-(trifluoromethyl)pyridin-3-yl]methoxy}-1-[(2S)-oxane-2-carbonyl]pyrrolidine-2-carboxylic acid], the “Maximum % activity (with co-corrector)” value is “+++ (≥350)”; the “Maximum % activity (without co-corrector)” value was “++ (≥100 and <200)”. In addition, the half-maximal effective concentration (EC50) under setting [1] was in the range of 1000 to 10000 nM. In addition, the EC50 under setting [2] fell in the range of 1000 to 10000 nM.

In the case of `COc1ncc(C(F)(F)F)cc1CO[C@H]1[C@H](C(C)(C)C)[C@@H](C(=O)O)N(C(=O)[C@@H]2CCCCO2)[C@H]1c1ccccc1CC(C)C` [Example 213, (2S,3R,4S,5S)-3-tert-butyl-4-{[2-methoxy-5-(trifluoromethyl)pyridin-3-yl]methoxy}-5-[2-(2-methylpropyl)phenyl]-1-[(2S)-oxane-2-carbonyl]pyrrolidine-2-carboxylic acid], the “Maximum % activity (with co-corrector)” value is “+++ (≥350)” and the “Maximum % activity (without co-corrector)” value was “+++ (≥200)”. In addition, the EC50 under setting [1] fell in the range of 1000 to 10000 nM. The EC50 under setting [2] was < 1000 nM.

Take `COc1cccc(S(=O)(=O)N2[C@H](C(=O)O)[C@@H](C(C)(C)C)[C@H](OCc3cc(C4CCC4)cnc3OC)[C@@H]2c2ccccc2C2CC2)n1` [Example 214, (2S,3R,4S,5S)-3-tert-butyl-4-[(5-cyclobutyl-2-methoxypyridin-3-yl)methoxy]-5-(2-cyclopropylphenyl)-1-(6-methoxypyridine-2-sulfonyl)pyrrolidine-2-carboxylic acid]: the “Maximum % activity (with co-corrector)” value is “++ (≥150 and <350)”; the “Maximum % activity (without co-corrector)” value is recorded as “+ (<100)”. Besides, under setting [1], the EC50 was in the range of 1000 to 10000 nM. Further, the EC50 under setting [2] is 1000 to 10000 nM.

In the case of `COc1ccc(C2(C)CCC2)cc1CO[C@H]1[C@H](C(C)(C)C)[C@@H](C(=O)O)N(C(=O)[C@@H]2CCCCO2)[C@H]1c1ccccc1C` [Example 215, (2S,3R,4S,5S)-3-tert-butyl-4-{[2-methoxy-5-(1-methylcyclobutyl)phenyl]methoxy}-5-(2-methylphenyl)-1-[(2S)-oxane-2-carbonyl]pyrrolidine-2-carboxylic acid], the “Maximum % activity (with co-corrector)” value is given as “+++ (≥350)” and the “Maximum % activity (without co-corrector)” value is reported as “+++ (≥200)”. For the same compound, the concentration giving a half-maximal response (EC50) under setting [1] was < 1000 nM. For the same compound, under setting [2], the EC50 was < 1000 nM.

For the compound `COc1ncc(C(F)(F)F)cc1CO[C@H]1[C@H](C(C)(C)C)[C@@H](C(=O)O)N(C(=O)[C@@H]2CCCCO2)[C@H]1c1cccc2c1OCC2` [Example 216, (2S,3R,4S,5S)-3-tert-butyl-5-(2,3-dihydro-1-benzofuran-7-yl)-4-{[2-methoxy-5-(trifluoromethyl)pyridin-3-yl]methoxy}-1-[(2S)-oxane-2-carbonyl]pyrrolidine-2-carboxylic acid], the “Maximum % activity (with co-corrector)” value is given as “+++ (≥350)” and the “Maximum % activity (without co-corrector)” value was “+ (<100)”. The 50% effective concentration (EC50) under setting [1] fell in the range of 1000 to 10000 nM. Further, the EC50 under setting [2] was < 1000 nM.

`COc1ncc(C2CC2)cc1CO[C@H]1[C@H](C(C)(C)C)[C@@H](C(=O)O)N(C(=O)[C@@H]2CCCCO2)[C@H]1c1ccccc1C` [Example 217, (2S,3R,4S,5S)-3-tert-butyl-4-[(5-cyclopropyl-2-methoxypyridin-3-yl)methoxy]-5-(2-methylphenyl)-1-[(2S)-oxane-2-carbonyl]pyrrolidine-2-carboxylic acid]: the “Maximum % activity (with co-corrector)” value was “+++ (≥350)” and the “Maximum % activity (without co-corrector)” value was “+++ (≥200)”. For the same compound, under setting [1], the EC50 was in the range of 1000 to 10000 nM. The EC50 under setting [2] is < 1000 nM.

As for `COc1ncc(C2CCC2)cc1CO[C@H]1[C@H](C(C)(C)C)[C@@H](C(=O)O)N(C(=O)[C@@H]2CCCCO2)[C@H]1c1cccc2c1CCCC2` [Example 218, (2S,3R,4S,5S)-3-tert-butyl-4-[(5-cyclobutyl-2-methoxypyridin-3-yl)methoxy]-1-[(2S)-oxane-2-carbonyl]-5-(5,6,7,8-tetrahydronaphthalen-1-yl)pyrrolidine-2-carboxylic acid], the “Maximum % activity (with co-corrector)” value is given as “+++ (≥350)” and the “Maximum % activity (without co-corrector)” value is “+++ (≥200)”. The EC50 under setting [1] is < 1000 nM. For the same compound, the EC50 under setting [2] is < 1000 nM.
